Reference: PubChem BioAssay (NCI)
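At the GI50, growth is halved. Definition used: TGI = concentration required for complete inhibition of growth.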

What was measured:
Test in all cases: inhibition of tumour cell growth, NCI panel, 384-well format
NCI-H460 NSCLC = tested on: NCI-H460 NSCLC
IGROV1 ovarian = tested on: IGROV1 ovarian
OVCAR-3 ovarian = tested on: OVCAR-3 ovarian
ACHN renal = tested on: ACHN renal
CAKI-1 renal = tested on: CAKI-1 renal
MDA-MB-435 melanoma = tested on: MDA-MB-435 melanoma
T-47D breast = tested on: T-47D breast
SNB-75 CNS = tested on: SNB-75 CNS
M14 melanoma = tested on: M14 melanoma
MCF7 breast = tested on: MCF7 breast
BT-549 breast = tested on: BT-549 breast
HS 578T breast = tested on: HS 578T breast
SK-MEL-5 melanoma = tested on: SK-MEL-5 melanoma
MOLT-4 leukemia = tested on: MOLT-4 leukemia
UO-31 renal = tested on: UO-31 renal
SF-268 CNS = tested on: SF-268 CNS
HOP-92 NSCLC = tested on: HOP-92 NSCLC
NCI/ADR-RES ovarian = tested on: NCI/ADR-RES ovarian
MDA-MB-231 breast = tested on: MDA-MB-231 breast
HOP-62 NSCLC = tested on: HOP-62 NSCLC
A498 renal = tested on: A498 renal
COLO 205 colon = tested on: COLO 205 colon
A549 NSCLC = tested on: A549 NSCLC
DU-145 prostate = tested on: DU-145 prostate
NCI-H226 lung = tested on: NCI-H226 lung
RPMI-8226 leukemia = tested on: RPMI-8226 leukemia
RXF 393 renal = tested on: RXF 393 renal
SK-MEL-28 melanoma = tested on: SK-MEL-28 melanoma
NCI-H322M lung = tested on: NCI-H322M lung
SK-MEL-2 melanoma = tested on: SK-MEL-2 melanoma
OVCAR-4 ovarian = tested on: OVCAR-4 ovarian
MALME-3M melanoma = tested on: MALME-3M melanoma
NCI-H23 lung = tested on: NCI-H23 lung
SN12C renal = tested on: SN12C renal
SNB-19 CNS = tested on: SNB-19 CNS
SF-295 CNS = tested on: SF-295 CNS
SW-620 colon = tested on: SW-620 colon
SK-OV-3 ovarian = tested on: SK-OV-3 ovarian
HCT-15 colon = tested on: HCT-15 colon
HL-60(TB) leukemia = tested on: HL-60(TB) leukemia
KM12 colon = tested on: KM12 colon
PC-3 prostate = tested on: PC-3 prostate
OVCAR-8 ovarian = tested on: OVCAR-8 ovarian
SF-539 CNS = tested on: SF-539 CNS
LOX IMVI melanoma = tested on: LOX IMVI melanoma
NCI-H522 lung = tested on: NCI-H522 lung
EKVX NSCLC = tested on: EKVX NSCLC
MDA-MB-468 breast = tested on: MDA-MB-468 breast
CCRF-CEM leukemia = tested on: CCRF-CEM leukemia
786-0 renal = tested on: 786-0 renal
HCC-2998 colon = tested on: HCC-2998 colon
U251 glioblastoma = tested on: U251 glioblastoma
UACC-257 melanoma = tested on: UACC-257 melanoma
HT29 colon = tested on: HT29 colon
UACC-62 melanoma = tested on: UACC-62 melanoma
OVCAR-5 ovarian = tested on: OVCAR-5 ovarian
HCT-116 colon = tested on: HCT-116 colon
K-562 leukemia = tested on: K-562 leukemia
TK-10 renal = tested on: TK-10 renal

Compound: Cc1c(NC(=O)c2cc(C(N)=O)nc3cc(F)ccc23)c(C(F)(F)F)nn1Cc1ccc(C#N)cc1
- GI50 (NCI-H460 NSCLC): 2.87 µM
- TGI (NCI-H460 NSCLC): 16.3 µM
- GI50 (IGROV1 ovarian): 1.69 µM
- TGI (IGROV1 ovarian): 8.2 µM
- GI50 (OVCAR-3 ovarian): 0.0509 µM
- TGI (OVCAR-3 ovarian): 1.19 µM
- GI50 (ACHN renal): 2.54 µM
- TGI (ACHN renal): 27.1 µM
- GI50 (CAKI-1 renal): 8.33 µM
- TGI (CAKI-1 renal): 37.4 µM
- GI50 (MDA-MB-435 melanoma): 17.1 µM
- TGI (MDA-MB-435 melanoma): > 100 µM
- GI50 (T-47D breast): 0.151 µM
- TGI (T-47D breast): 11.5 µM
- GI50 (SNB-75 CNS): 12.2 µM
- TGI (SNB-75 CNS): 27 µM
- GI50 (M14 melanoma): 11.1 µM
- TGI (M14 melanoma): 24.9 µM
- GI50 (MCF7 breast): 0.198 µM
- TGI (MCF7 breast): 1.22 µM
- GI50 (BT-549 breast): 0.605 µM
- TGI (BT-549 breast): 12.1 µM
- GI50 (HS 578T breast): 0.022 µM
- TGI (HS 578T breast): 0.123 µM
- GI50 (SK-MEL-5 melanoma): 12.3 µM
- TGI (SK-MEL-5 melanoma): 54.8 µM
- GI50 (MOLT-4 leukemia): 0.11 µM
- TGI (MOLT-4 leukemia): 2.02 µM
- GI50 (UO-31 renal): 0.208 µM
- TGI (UO-31 renal): 9.83 µM
- GI50 (SF-268 CNS): 6.04 µM
- TGI (SF-268 CNS): 28.2 µM
- GI50 (HOP-92 NSCLC): 0.633 µM
- TGI (HOP-92 NSCLC): 7.03 µM
- GI50 (NCI/ADR-RES ovarian): 1.35 µM
- TGI (NCI/ADR-RES ovarian): 2.87 µM
- GI50 (MDA-MB-231 breast): 5.69 µM
- TGI (MDA-MB-231 breast): 41.6 µM
- GI50 (HOP-62 NSCLC): 3.3 µM
- TGI (HOP-62 NSCLC): 16.5 µM
- GI50 (A498 renal): 0.742 µM
- TGI (A498 renal): 15.4 µM
- GI50 (COLO 205 colon): 0.102 µM
- TGI (COLO 205 colon): 1.33 µM
- GI50 (A549 NSCLC): 2 µM
- TGI (A549 NSCLC): 15.6 µM
- GI50 (DU-145 prostate): 0.0752 µM
- TGI (DU-145 prostate): 2.43 µM
- GI50 (NCI-H226 lung): 0.0842 µM
- TGI (NCI-H226 lung): 8.1 µM
- TGI (RPMI-8226 leukemia): 0.163 µM
- GI50 (RXF 393 renal): 0.693 µM
- TGI (RXF 393 renal): 5.32 µM
- GI50 (SK-MEL-28 melanoma): 18.3 µM
- TGI (SK-MEL-28 melanoma): > 100 µM
- GI50 (NCI-H322M lung): 1.71 µM
- TGI (NCI-H322M lung): 12.9 µM
- GI50 (SK-MEL-2 melanoma): 17.4 µM
- TGI (SK-MEL-2 melanoma): 35.5 µM
- GI50 (OVCAR-4 ovarian): 0.0803 µM
- TGI (OVCAR-4 ovarian): 1.7 µM
- GI50 (MALME-3M melanoma): 2.94 µM
- TGI (MALME-3M melanoma): 16.4 µM
- GI50 (NCI-H23 lung): 2.93 µM
- TGI (NCI-H23 lung): 16.5 µM
- GI50 (SN12C renal): 0.237 µM
- TGI (SN12C renal): 12.1 µM
- GI50 (SNB-19 CNS): 1.81 µM
- TGI (SNB-19 CNS): 12.3 µM
- GI50 (SF-295 CNS): 1.07 µM
- TGI (SF-295 CNS): 5.5 µM
- GI50 (SW-620 colon): 4.76 µM
- TGI (SW-620 colon): 33.9 µM
- GI50 (SK-OV-3 ovarian): 0.132 µM
- TGI (SK-OV-3 ovarian): 0.313 µM
- GI50 (HCT-15 colon): 14.1 µM
- TGI (HCT-15 colon): > 100 µM
- GI50 (HL-60(TB) leukemia): 1.06 µM
- TGI (HL-60(TB) leukemia): 2.38 µM
- GI50 (KM12 colon): 0.142 µM
- TGI (KM12 colon): 1.9 µM
- GI50 (PC-3 prostate): 0.0532 µM
- TGI (PC-3 prostate): 0.276 µM
- GI50 (OVCAR-8 ovarian): 1.62 µM
- TGI (OVCAR-8 ovarian): 5.83 µM
- GI50 (SF-539 CNS): 5.05 µM
- TGI (SF-539 CNS): 27.2 µM
- GI50 (LOX IMVI melanoma): 1.67 µM
- TGI (LOX IMVI melanoma): 12.8 µM
- GI50 (NCI-H522 lung): 4.54 µM
- TGI (NCI-H522 lung): 27.8 µM
- GI50 (EKVX NSCLC): 16.1 µM
- TGI (EKVX NSCLC): 66.3 µM
- GI50 (MDA-MB-468 breast): 2.66 µM
- TGI (MDA-MB-468 breast): 13.4 µM
- GI50 (CCRF-CEM leukemia): 0.0337 µM
- TGI (CCRF-CEM leukemia): 10.3 µM
- GI50 ([…]-0 renal): 0.319 µM
- TGI (786-0 renal): 12.3 µM
- GI50 (HCC-2998 colon): 0.0956 µM
- TGI (HCC-2998 colon): 1.69 µM
- GI50 (U251 glioblastoma): 0.974 µM
- TGI (U251 glioblastoma): 12.9 µM
- GI50 (UACC-257 melanoma): 33.4 µM
- TGI (UACC-257 melanoma): > 100 µM
- GI50 (HT29 colon): 0.134 µM
- TGI (HT29 colon): 1.31 µM
- GI50 (UACC-62 melanoma): 2.78 µM
- TGI (UACC-62 melanoma): 15.4 µM
- GI50 (OVCAR-5 ovarian): 2.81 µM
- TGI (OVCAR-5 ovarian): 9.74 µM
- GI50 (HCT-116 colon): 1.97 µM
- TGI (HCT-116 colon): 12.2 µM
- GI50 (K-562 leukemia): 5.92 µM
- TGI (K-562 leukemia): 22.3 µM
- GI50 (TK-10 renal): 1.37 µM
- TGI (TK-10 renal): 5.06 µM
